Read-outs that look alike come from different tables or passages of the source. Where a SMILES comes first, the peptide text is derived from it.
What was measured:
[1] = test system: T20-resistant HIV-1 variant V38A/N42D; type: cell-based
[2] = test system: HIV-1IIIB (subtype B, X4); test: Inhibition of HIV-1 IIIB infection by peptides in the presence of sera from HIV-1-infected patients; type: cell-based; details: for IC50: MT-2 cells, triplicate, mean ± SD
Experimental: Inhibition of peptides on HIV-1IIIB (subtype B, X4)infection in the presence of HIV-1-infected patients’ sera was determined as previously described. Briefly, each peptide was mixed with serially diluted serum from an HIV-1-infected patient at room temperature for 30 min. Next, the mixture of peptide/serum and HIV-1 (100 TCID50) were added to MT-2 cells (1 × 10^5/ml) in RPMI 1640 medium containing 10% FBS. After incubation at 37 °C overnight, the culture supernatants were replaced with fresh culture medium.

[3] = test system: 94US_33931N (B); details: read-out: IC50 (nM), infection by primary isolate 94US_33931N (B); primary HIV-1 isolate, subtype B
[4] = test system: 93BR020 (F); type: cell-based; details: primary HIV-1 isolate, subtype F; read-out: IC50 (nM), infection by primary isolate 93BR020 (F)
[5] = test system: BCF020 (Group O); details: read-out: IC50 (nM), infection by primary isolate BCF020 (Group O), primary HIV-1 isolate
[6] = test system: 92TH009 (A/E); details: read-out: IC50 (nM), infection by primary isolate 92TH009 (A/E); primary HIV-1 isolate, subtype A/E
[7] = test system: NP1525 (A/E); type: cell-based; details: primary HIV-1 isolate, subtype A/E; read-out: IC50 (nM), infection by primary isolate NP1525 (A/E)
[8] = molecular target: T1, gp41 6-HB formation between N36 and C34 (Human immunodeficiency virus type 1 group M subtype B, UniProt P04578); test: biochemical; type: biochemical, HIV-1
T1 construct: gp41 NHR (“N36”, 546-581); made in house; host or cells: chemical solid-phase FMOC synthesis
Experimental: Inhibition of gp41 six-helix bundle formation by a testing peptide was determined with a sandwich ELISA described previously. […] A450 was determined by an ELISA reader (Ultra 384, Tecan).

[9] = test system: T20-resistant HIV-1 variant N42T/N43K; type: cell-based
[10] = rat liver homogenate (100 mg wet tissue/2.5 ml PBS pH 7.2, 9,000 g supernatant), peptide 10 μg/ml, 37 °C, LC-MS; triplicate
Experimental: Chromatographic analyses were performed using an ODS-C8 column (5 μm, 100 mm × 2.0 mm ID) kept at ambient temperature. The mobile phase was composed of acetonitrile-water-formic acid in the ratio of 50:50:0.1 (v/v/v) at a flow rate of 0.3 mL/min. The sample injection volume was 10 μL. Acetonitrile was HPLC grade and other chemical reagents and solvents were analytical grade. A Thermo TSQ Quantum Discovery MAX triple-quadruple tandem mass spectrometer equipped with ESI source (San Jose, CA) and Surveyor LC pump were used for LC-MS analysis. Data acquisition and data processing were performed by using Xcalibur software and LCQuan 2.0 data analysis program (Thermo Finnigan), respectively. Optimized MS parameters were as below: 4800 V spray voltage, 40.0 psi sheath gas pressure, 1.0 psi auxiliary valve flow and 300 °C of capillary temperature. When running collision-induced dissociation (CID), the pressure was set to 1.5 mTorr.
The supernatants were collected.

[11] = test system: 93IN101 (C); details: read-out: IC50 (nM), infection by primary isolate 93IN101 (C); primary HIV-1 isolate, subtype C
[12] = molecular target: T2, N36 (gp41 NHR peptide) (Human immunodeficiency virus type 1 group M subtype B, UniProt P04578); test: CD spectroscopy and thermal midpoint analysis of peptide/N36 complexes; type: physicochemical, HIV-1
T2 construct: gp41 NHR (“N36”, 546-581); made in house; host or cells: chemical solid-phase FMOC synthesis
Experimental: Briefly, each peptide or peptide mixture was dissolved in phosphate-buffered saline (PBS: 50 mM sodium phosphate and 150 mM NaCl, pH 7.2) at the final concentration of 10 μM and incubated at 37 °C for 30 min before cooling down to 4 °C. The CD spectra of each sample were acquired on a Jasco spectropolarimeter (Model J-815, Jasco Inc., Japan) at 4 °C using a 5 nm bandwidth, 0.1 nm resolution, 0.1 cm path length and an average time of 5.0 sec. Spectra were corrected by the subtraction of a blank corresponding to the solvent composition of each sample. Thermal midpoint analysis was used to determine the temperature at which 50% of the 6-HB formed by the CHR and NHR would decompose. It was monitored at 222 nm from 4 °C to 98 °C by applying a thermal gradient of 5 °C/min. The melting curve was smoothed and the midpoint of the thermal unfolding transition (Tm) values was calculated using Jasco software utilities as described above.

[13] = test system: T20-resistant HIV-1 strains
[14] = in vivo; details: male, Sprague-Dawley (SD), rat, plasma, iv, 1 mg/kg
Experimental: Four male SD rats weighing approximately 200 g each were obtained from the Shanghai Medical School Animal Center and were used for the half-life assay. […] After injection, blood samples were acquired from rat orbit at several time points (8 and 30 min and 1.5, 3, 6, 9, 12 and 24 h after peptide injection) and placed in clean tubes. […] Then, HRP-labeled rabbit-anti-mouse IgG (Sigma, USA) and TMB were added in order. Absorbance at 450 nm was determined by an ELISA reader (Ultra 384, Tecan). The standard peptide parameters were obtained first. Then, the plasma peptide concentrations were determined as a function of time and the half-life was calculated by using PK Solver for Microsoft Excel to obtain pharmacokinetic parameters.

[15] = test system: 92UG024 (D); type: cell-based; details: primary HIV-1 isolate, subtype D; read-out: IC50 (nM), infection by primary isolate 92UG024 (D)
[16] = test system: T20-resistant HIV-1 variant V38A; type: cell-based

T1 sequence (P04578 546-581): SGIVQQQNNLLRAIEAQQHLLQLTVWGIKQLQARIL
T2 sequence (P04578 546-581): as above

## CC[C@H](C)[C@H](NC(=O)[C@H](CO)NC(=O)[C@H](CCC(=O)O)NC(=O)[C@H](CCC(=O)O)NC(=O)[C@H](CCC(N)=O)NC(=O)[C@H](CCCCN)NC(=O)[C@H](CCCCN)NC(=O)[C@@H](NC(=O)[C@H](CCC(N)=O)NC(=O)[C@H](CCC(=O)O)NC(=O)[C@H](CCC(=O)O)NC(=O)[C@@H](NC(=O)[C@H](CCCCN)NC(=O)[C@H](CCCCN)NC(=O)[C@@H](NC(=O)[C@H](CC(C)C)NC(=O)[C@H](CCC(=O)O)NC(=O)[C@H](CCC(=O)O)NC(=O)[C@H](CO)NC(=O)[C@H](CCCCN)NC(=O)[C@H](CCCCN)NC(=O)[C@@H](NC(=O)[C@H](CC(C)C)NC(=O)[C@H](CCC(=O)O)NC(=O)[C@H](CCC(=O)O)NC(=O)[C@@H](NC(=O)[C@H](CCCCN)NC(=O)[C@H](CCCCN)NC(=O)[C@H](CC(=O)O)NC(=O)[C@H](Cc1c[nH]c2ccccc12)NC(=O)[C@H](CCC(=O)O)NC(=O)[C@H](CCC(=O)O)NC(=O)[C@H](Cc1c[nH]c2ccccc12)NC(=O)[C@@H](NC(=O)[C@H](CCSC)NC(C)=O)[C@@H](C)O)[C@@H](C)CC)[C@@H](C)CC)[C@@H](C)CC)[C@@H](C)CC)[C@@H](C)CC)C(=O)N[C@@H](CCCCN)C(=O)N[C@@H](CCCCN)C(N)=O [AP3] (Ac-MTWEEWDKKIEELIKKSEELIKKIEEQIKKQEESIKK-NH2)
[1]
  IC50: 31.3 ± 6.62 nM
[2]; HPS-1 relative to N
  Fold change of IC50, HPS-1: 0.7
[2]; HPS-2 relative to N
  Fold change of IC50, HPS-2: 0.2
[2]; HPS-3 relative to N
  Fold change of IC50, HPS-3: 0.2
[2]; HPS-4 relative to N
  Fold change of IC50, HPS-4: 0.1
[2]; HPS-5 relative to N
  Fold change of IC50, HPS-5: 0.2
[2]; in presence of serum of HIV-1-infected patient HPS-1, read-out: IC50 (nM), HIV-1 IIIB infection, HPS-1
  IC50: 17.7 ± 4.3 nM
[2]; in presence of serum of HIV-1-infected patient HPS-2, read-out: IC50 (nM), HIV-1 IIIB infection, HPS-2
  IC50: 5.1 ± 0.7 nM
[2]; in presence of serum of HIV-1-infected patient HPS-3, read-out: IC50 (nM), HIV-1 IIIB infection, HPS-3
  IC50: 4.2 ± 0.4 nM
[2]; in presence of serum of HIV-1-infected patient HPS-4, read-out: IC50 (nM), HIV-1 IIIB infection, HPS-4
  IC50: 2 ± 0.6 nM
[2]; in presence of serum of HIV-1-infected patient HPS-5, read-out: IC50 (nM), HIV-1 IIIB infection, HPS-5
  IC50: 5.1 ± 0.8 nM
[3]
  IC50: 10.2 ± 0.7 nM
[4]
  IC50: 19.9 nM
[5]
  IC50: 21.9 ± 0.1 nM
[6]
  IC50: 27.8 ± 5.5 nM
[7]
  IC50: 32.3 ± 8.8 nM
[8]
  IC50: 240 nM
[8]; AP3 versus AP1
  fold more potent than AP1 against 6-HB formation: about 30 fold
[8]; AP3 versus AP2
  fold more potent than AP2 against 6-HB formation: ~15 fold
[9]
  IC50: 35.2 ± 12.5 nM
[10]
  in vitro metabolic stability in liver homogenate: significantly enhanced in vitro metabolic stability over T20
AP3 versus T20, SD rat, i.v. 1 mg/kg
  fold longer in vivo elimination half-life than T20: about 2.8 fold
Intravenous 1 mg/kg, male SD rats, n = 2, plasma by sandwich ELISA, PK Solver
  Cmax: 289.57 µg/mL
[11]
  IC50: 16.3 ± 1.5 nM
[12]; CD thermal denaturation at 222 nm, 4 to 98 °C, 5 °C/min, 10 μM in PBS pH 7.2
  Tm of complex with N36: 83.6 ^oC
[12]; CD, peptide/N36 mixture 10 μM in PBS pH 7.2, 4 °C
  α-helix content of complex with N36: 77.84%
[13]; AP3 versus AP2
  fold more effective than AP2 against T20-resistant strains: 2- to 4 fold
[13]; read-out: IC50 against T20-resistant HIV-1 strains (summary), over the T20-resistant strains of Table 1
  IC50: 13 to 90 nM
[14]
  MRT: 8.69 h
  half-life: 6.02 h
[15]
  IC50: 16.5 ± 0.2 nM
[16]
  IC50: 12.6 ± 2.66 nM

— PMC4541410 (Scientific Reports, 2015)
